{
  "source": "paper PMC10464202",
  "about": "“Discovery of novel JAK1 inhibitors through combining machine learning, structure-based pharmacophore modeling and bio-evaluation” (Journal of Translational Medicine, 2023)",
  "origin": "cited, not measured here",
  "target": "JAK1 (Homo sapiens, UniProt P23458)",
  "sequence (P23458 whole entry)": "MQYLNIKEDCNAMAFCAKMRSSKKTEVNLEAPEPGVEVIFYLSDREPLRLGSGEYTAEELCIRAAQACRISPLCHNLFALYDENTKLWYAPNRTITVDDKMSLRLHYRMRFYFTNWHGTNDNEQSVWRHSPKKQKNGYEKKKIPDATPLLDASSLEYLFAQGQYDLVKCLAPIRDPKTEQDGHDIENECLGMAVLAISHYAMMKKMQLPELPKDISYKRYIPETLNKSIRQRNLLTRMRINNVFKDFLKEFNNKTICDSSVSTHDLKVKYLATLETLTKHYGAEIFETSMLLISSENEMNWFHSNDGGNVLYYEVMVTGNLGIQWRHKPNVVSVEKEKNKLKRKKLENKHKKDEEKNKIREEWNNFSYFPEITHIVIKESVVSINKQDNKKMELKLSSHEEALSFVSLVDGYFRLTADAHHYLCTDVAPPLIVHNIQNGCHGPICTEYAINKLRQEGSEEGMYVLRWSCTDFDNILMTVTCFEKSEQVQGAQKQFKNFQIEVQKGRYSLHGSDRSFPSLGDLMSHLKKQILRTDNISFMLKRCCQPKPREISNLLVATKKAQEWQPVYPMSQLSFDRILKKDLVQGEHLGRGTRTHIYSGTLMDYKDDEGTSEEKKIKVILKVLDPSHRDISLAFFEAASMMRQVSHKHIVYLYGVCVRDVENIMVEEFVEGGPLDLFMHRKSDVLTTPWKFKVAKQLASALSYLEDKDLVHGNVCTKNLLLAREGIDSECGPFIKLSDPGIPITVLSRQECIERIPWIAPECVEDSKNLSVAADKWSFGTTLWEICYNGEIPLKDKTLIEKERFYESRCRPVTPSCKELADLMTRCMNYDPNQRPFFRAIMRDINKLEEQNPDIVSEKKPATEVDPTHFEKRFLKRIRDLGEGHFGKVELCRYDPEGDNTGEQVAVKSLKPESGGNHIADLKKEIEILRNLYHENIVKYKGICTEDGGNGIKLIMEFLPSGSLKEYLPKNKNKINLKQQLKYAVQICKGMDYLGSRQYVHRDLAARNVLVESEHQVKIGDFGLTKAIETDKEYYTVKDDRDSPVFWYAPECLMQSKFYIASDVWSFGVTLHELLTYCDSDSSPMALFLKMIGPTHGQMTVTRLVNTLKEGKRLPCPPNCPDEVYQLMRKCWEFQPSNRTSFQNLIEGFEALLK",
  "conditions": "JAK1 inhibitors obtained by literature search; read-out: IC50 of training set (Hiphop)",
  "data": [
    {"compound": "Cc1ccc(C(=O)Nc2cccc3c(-c4nc(Nc5cnn(C)c5)ncc4C)c[nH]c23)c(C)n1", "note": "[Compound 5]", "values": [
      {"measurement": "IC50", "value": 4, "unit": "nM"}
    ]}
  ]
}
